Read-outs that look alike come from different tables or passages of the source.
How the values were obtained:
ABL1 = target: T1, ABL1 (Homo sapiens, UniProt P00519); assay: In vitro kinase activity (Kinase-Glo luminescence); type: biochemical
T1 construct: Human recombinant full-length kinases were incubated in kinase buffer
Experimental: (§1) Human recombinant full-length kinases were incubated in kinase buffer containing ATP and substrate (Poly Glu:Tyr) for 4 hours at room temperature with or without the presence of the compounds listed in Table 1 at various concentrations. Remaining ATP in solution was then quantified using the Kinase-Glo-Iuminescence™ kit (Promega).

AKT-1 = target: T2, AKT-1 (Homo sapiens, UniProt P31749); assay: In vitro kinase activity (Kinase-Glo luminescence); type: biochemical; conditions: Table 2
T2 construct: Human recombinant full-length kinases were incubated in kinase buffer
Experimental: as §1

Aurora A = target: T3, Aurora A (Homo sapiens, UniProt O14965); assay: In vitro kinase activity (Kinase-Glo luminescence); type: biochemical
T3 construct: Human recombinant full-length kinases were incubated in kinase buffer
Experimental: as §1

Aurora B = target: T4, Aurora B (Homo sapiens, UniProt Q96GD4); assay: In vitro kinase activity (Kinase-Glo luminescence); type: biochemical
T4 construct: Human recombinant full-length kinases were incubated in kinase buffer
Experimental: as §1

CDK1/Cyclin B = target: T5, CDK1/Cyclin B (Homo sapiens, UniProt P06493); assay: In vitro kinase activity (Kinase-Glo luminescence); type: biochemical
T5 construct: Human recombinant full-length kinases were incubated in kinase buffer
Experimental: as §1

DDR1 = target: T6, DDR1 (Homo sapiens, UniProt Q08345); assay: In vitro kinase activity (Kinase-Glo luminescence); type: biochemical
T6 construct: Human recombinant full-length kinases were incubated in kinase buffer
Experimental: as §1

EGFR = target: T7, EGFR (Homo sapiens, UniProt P00533); assay: In vitro kinase activity (Kinase-Glo luminescence); type: biochemical
T7 construct: Human recombinant full-length kinases were incubated in kinase buffer
Experimental: as §1

EPHA1 = target: T8, EPHA1 (Homo sapiens, UniProt P21709); assay: In vitro kinase activity (Kinase-Glo luminescence); type: biochemical
T8 construct: Human recombinant full-length kinases were incubated in kinase buffer
Experimental: as §1

FAK = target: T9, FAK (Homo sapiens, UniProt Q05397); assay: In vitro kinase activity (Kinase-Glo luminescence); type: biochemical; conditions: for FAK inhibition (% at 1 μM): Table 1
T9 construct: Human recombinant full-length kinases were incubated in kinase buffer
Experimental: as §1

FGFR1 = target: T10, FGFR1 (Homo sapiens, UniProt P11362); assay: In vitro kinase activity (Kinase-Glo luminescence); type: biochemical
T10 construct: Human recombinant full-length kinases were incubated in kinase buffer
Experimental: as §1

FLT3 = target: T11, FLT3 (Homo sapiens, UniProt P36888); assay: In vitro kinase activity (Kinase-Glo luminescence); type: biochemical
T11 construct: Human recombinant full-length kinases were incubated in kinase buffer
Experimental: as §1

FYN = target: T12, FYN (Homo sapiens, UniProt P06241); assay: In vitro kinase activity (Kinase-Glo luminescence); type: biochemical
T12 construct: Human recombinant full-length kinases were incubated in kinase buffer
Experimental: as §1

HER2 = target: T13, HER2 (Homo sapiens, UniProt P04626); assay: In vitro kinase activity (Kinase-Glo luminescence); type: biochemical
T13 construct: Human recombinant full-length kinases were incubated in kinase buffer
Experimental: as §1

IGF1R = target: T14, IGF1R (Homo sapiens, UniProt P08069); assay: In vitro kinase activity (Kinase-Glo luminescence); type: biochemical
T14 construct: Human recombinant full-length kinases were incubated in kinase buffer
Experimental: as §1

IKK-ε = target: T15, IKK-ε (Homo sapiens, UniProt Q14164); assay: In vitro kinase activity (Kinase-Glo luminescence); type: biochemical
T15 construct: Human recombinant full-length kinases were incubated in kinase buffer
Experimental: as §1

INSR = target: T16, INSR (Homo sapiens, UniProt P06213); assay: In vitro kinase activity (Kinase-Glo luminescence); type: biochemical
T16 construct: Human recombinant full-length kinases were incubated in kinase buffer
Experimental: as §1

LYN = target: T17, LYN (Homo sapiens, UniProt P07948); assay: In vitro kinase activity (Kinase-Glo luminescence); type: biochemical
T17 construct: Human recombinant full-length kinases were incubated in kinase buffer
Experimental: as §1

MET = target: T18, MET (Homo sapiens, UniProt P08581); assay: In vitro kinase activity (Kinase-Glo luminescence); type: biochemical
T18 construct: Human recombinant full-length kinases were incubated in kinase buffer
Experimental: as §1

P38-γ = target: T19, P38-γ (Homo sapiens, UniProt P53778); assay: In vitro kinase activity (Kinase-Glo luminescence); type: biochemical
T19 construct: Human recombinant full-length kinases were incubated in kinase buffer
Experimental: as §1

PAK1 = target: T20, PAK1 (Homo sapiens, UniProt Q13153); assay: In vitro kinase activity (Kinase-Glo luminescence); type: biochemical
T20 construct: Human recombinant full-length kinases were incubated in kinase buffer
Experimental: as §1

PDGFR-β = target: T21, PDGFR-β (Homo sapiens, UniProt P09619); assay: In vitro kinase activity (Kinase-Glo luminescence); type: biochemical
T21 construct: Human recombinant full-length kinases were incubated in kinase buffer
Experimental: as §1

PIM1 = target: T22, PIM1 (Homo sapiens, UniProt P11309); assay: In vitro kinase activity (Kinase-Glo luminescence); type: biochemical
T22 construct: Human recombinant full-length kinases were incubated in kinase buffer
Experimental: as §1

PKC-α = target: T23, PKC-α (Homo sapiens, UniProt P17252); assay: In vitro kinase activity (Kinase-Glo luminescence); type: biochemical; conditions: Table 2
T23 construct: Human recombinant full-length kinases were incubated in kinase buffer
Experimental: as §1

PLK4 = target: T24, PLK4 (Homo sapiens, UniProt O00444); assay: In vitro kinase activity (Kinase-Glo luminescence); type: biochemical
T24 construct: Human recombinant full-length kinases were incubated in kinase buffer
Experimental: as §1

RPS6KA4 = target: T25, RPS6KA4 (Homo sapiens, UniProt O75676); assay: In vitro kinase activity (Kinase-Glo luminescence); type: biochemical
T25 construct: Human recombinant full-length kinases were incubated in kinase buffer
Experimental: as §1

SGK3 = target: T26, SGK3 (Homo sapiens, UniProt Q96BR1); assay: In vitro kinase activity (Kinase-Glo luminescence); type: biochemical
T26 construct: Human recombinant full-length kinases were incubated in kinase buffer
Experimental: as §1

SRC = target: T27, SRC (Homo sapiens, UniProt P12931); assay: In vitro kinase activity (Kinase-Glo luminescence); type: biochemical
T27 construct: Human recombinant full-length kinases were incubated in kinase buffer
Experimental: as §1

SYK = target: T28, SYK (Homo sapiens, UniProt P43405); assay: In vitro kinase activity (Kinase-Glo luminescence); type: biochemical
T28 construct: Human recombinant full-length kinases were incubated in kinase buffer
Experimental: as §1

TIE1 = target: T29, TIE1 (Homo sapiens, UniProt P35590); assay: In vitro kinase activity (Kinase-Glo luminescence); type: biochemical
T29 construct: Human recombinant full-length kinases were incubated in kinase buffer
Experimental: as §1

TRKB = target: T30, TRKB (Homo sapiens, UniProt Q16620); assay: In vitro kinase activity (Kinase-Glo luminescence); type: biochemical
T30 construct: Human recombinant full-length kinases were incubated in kinase buffer
Experimental: as §1

VEGFR2 = target: T31, VEGFR2 (Homo sapiens, UniProt P35968); assay: In vitro kinase activity (Kinase-Glo luminescence); type: biochemical
T31 construct: Human recombinant full-length kinases were incubated in kinase buffer
Experimental: as §1

YES1 = target: T32, YES1 (Homo sapiens, UniProt P07947); assay: In vitro kinase activity (Kinase-Glo luminescence); type: biochemical
T32 construct: Human recombinant full-length kinases were incubated in kinase buffer
Experimental: as §1

MDA-231 cells = assay: Inhibition of cell proliferation, MTT metabolic assay; type: cell-based; conditions: 96 hours continuous treatment, read-out: MDA231- IC50
Experimental: Exponentially growing DU145 or MDA-231 cells (1×10^3 cells) were seeded in 96-well plates. The final concentration of DMSO was less than 0.05%. After 96 hours, the cell survival was evaluated using 3-(4,5-dimethylthiazo-2-yl)-2,5-diphenyltetrazolium bromide (MTT) metabolic assay.

DU145 cells = assay: as above; type: cell-based
Experimental: Exponentially growing DU145 or MDA-231 cells (1×10^3 cells) were seeded in 96-well plates. The final concentration of DMSO was less than 0.05%. After 96 hours, the cell survival was evaluated using 3-(4,5-dimethylthiazo-2-yl)-2,5-diphenyltetrazolium bromide (MTT) metabolic assay. The inhibitory activity (IC50) of the compounds on MDA-231 and DU145 cell proliferation was determined. The results are presented in Table 1 for a representative number of compounds.

[1] = Homo sapiens, MDA-MB-231, MDA-231 cell proliferation
[2] = Homo sapiens, DU-145, 96 hours continuous treatment
[3] = read-out: FAK inhibition (% at 1 μM)

T9 sequence (Q05397 whole entry): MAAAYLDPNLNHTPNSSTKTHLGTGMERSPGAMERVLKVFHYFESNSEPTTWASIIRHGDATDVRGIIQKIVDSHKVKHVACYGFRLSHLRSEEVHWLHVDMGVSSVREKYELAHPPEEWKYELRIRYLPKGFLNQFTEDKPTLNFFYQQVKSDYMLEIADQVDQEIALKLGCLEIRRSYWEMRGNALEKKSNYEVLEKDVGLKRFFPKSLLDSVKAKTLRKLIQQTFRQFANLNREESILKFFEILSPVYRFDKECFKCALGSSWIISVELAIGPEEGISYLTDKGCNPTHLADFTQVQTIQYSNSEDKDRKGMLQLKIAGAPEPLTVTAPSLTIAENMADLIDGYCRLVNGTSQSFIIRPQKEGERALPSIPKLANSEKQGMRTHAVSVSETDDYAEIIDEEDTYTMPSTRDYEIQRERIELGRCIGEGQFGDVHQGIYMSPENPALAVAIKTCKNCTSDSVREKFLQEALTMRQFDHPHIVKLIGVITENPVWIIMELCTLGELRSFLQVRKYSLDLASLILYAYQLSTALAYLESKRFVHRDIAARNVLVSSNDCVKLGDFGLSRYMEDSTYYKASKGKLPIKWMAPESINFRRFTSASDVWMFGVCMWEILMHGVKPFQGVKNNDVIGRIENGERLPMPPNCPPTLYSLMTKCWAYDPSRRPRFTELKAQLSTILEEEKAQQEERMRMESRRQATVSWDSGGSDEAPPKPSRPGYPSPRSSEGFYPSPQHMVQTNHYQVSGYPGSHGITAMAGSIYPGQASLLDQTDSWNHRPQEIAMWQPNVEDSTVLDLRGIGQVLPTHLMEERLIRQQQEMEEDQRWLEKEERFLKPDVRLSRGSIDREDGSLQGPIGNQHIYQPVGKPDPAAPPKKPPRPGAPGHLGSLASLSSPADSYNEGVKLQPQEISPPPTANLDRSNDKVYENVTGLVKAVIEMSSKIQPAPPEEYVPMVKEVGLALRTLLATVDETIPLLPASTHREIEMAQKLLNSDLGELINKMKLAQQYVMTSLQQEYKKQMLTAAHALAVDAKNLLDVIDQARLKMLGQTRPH
T7 sequence (P00533 25-1210): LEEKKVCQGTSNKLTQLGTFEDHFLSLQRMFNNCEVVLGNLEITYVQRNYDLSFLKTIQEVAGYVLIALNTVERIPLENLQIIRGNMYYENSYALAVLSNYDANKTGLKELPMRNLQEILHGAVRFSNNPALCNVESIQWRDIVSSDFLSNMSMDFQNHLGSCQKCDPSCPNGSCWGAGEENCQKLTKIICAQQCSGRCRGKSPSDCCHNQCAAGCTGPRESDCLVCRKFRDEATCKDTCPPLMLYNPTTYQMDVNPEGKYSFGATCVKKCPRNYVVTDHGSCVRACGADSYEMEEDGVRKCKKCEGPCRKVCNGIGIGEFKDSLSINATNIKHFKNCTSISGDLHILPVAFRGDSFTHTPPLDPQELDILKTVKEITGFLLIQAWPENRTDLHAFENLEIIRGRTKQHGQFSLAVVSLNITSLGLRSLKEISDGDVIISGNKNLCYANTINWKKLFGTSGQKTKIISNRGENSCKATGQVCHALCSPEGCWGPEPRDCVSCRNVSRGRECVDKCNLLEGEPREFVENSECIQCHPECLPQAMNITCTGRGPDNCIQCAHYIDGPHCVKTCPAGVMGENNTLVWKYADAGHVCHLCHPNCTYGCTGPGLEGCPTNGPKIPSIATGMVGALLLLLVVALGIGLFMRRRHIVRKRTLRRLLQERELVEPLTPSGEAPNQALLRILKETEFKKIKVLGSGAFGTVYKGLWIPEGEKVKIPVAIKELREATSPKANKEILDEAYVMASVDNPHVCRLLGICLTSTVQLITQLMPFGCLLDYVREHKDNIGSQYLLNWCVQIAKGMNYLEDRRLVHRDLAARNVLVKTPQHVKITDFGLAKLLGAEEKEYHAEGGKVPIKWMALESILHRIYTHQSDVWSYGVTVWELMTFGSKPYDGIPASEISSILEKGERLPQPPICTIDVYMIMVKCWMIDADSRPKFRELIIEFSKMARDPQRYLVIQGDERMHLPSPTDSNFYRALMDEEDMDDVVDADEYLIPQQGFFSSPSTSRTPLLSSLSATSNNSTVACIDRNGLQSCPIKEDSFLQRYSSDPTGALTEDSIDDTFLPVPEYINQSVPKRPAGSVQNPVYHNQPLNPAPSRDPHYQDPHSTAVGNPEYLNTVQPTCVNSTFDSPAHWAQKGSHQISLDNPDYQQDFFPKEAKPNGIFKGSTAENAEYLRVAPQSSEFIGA
T32 sequence (P07947 whole entry): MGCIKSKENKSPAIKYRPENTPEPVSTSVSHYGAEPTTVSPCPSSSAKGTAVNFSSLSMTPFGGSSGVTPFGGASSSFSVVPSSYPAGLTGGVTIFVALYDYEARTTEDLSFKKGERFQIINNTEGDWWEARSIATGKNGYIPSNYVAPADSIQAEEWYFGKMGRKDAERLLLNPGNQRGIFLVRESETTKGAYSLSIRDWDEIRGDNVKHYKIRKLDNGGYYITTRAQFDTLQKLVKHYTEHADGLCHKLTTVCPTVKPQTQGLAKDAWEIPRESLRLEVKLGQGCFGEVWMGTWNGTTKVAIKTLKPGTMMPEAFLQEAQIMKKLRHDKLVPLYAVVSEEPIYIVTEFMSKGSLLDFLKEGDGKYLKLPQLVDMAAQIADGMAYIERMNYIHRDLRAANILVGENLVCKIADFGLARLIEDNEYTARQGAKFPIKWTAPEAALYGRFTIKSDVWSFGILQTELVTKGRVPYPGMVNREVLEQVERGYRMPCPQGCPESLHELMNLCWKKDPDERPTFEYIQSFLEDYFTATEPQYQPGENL
T30 sequence (Q16620 32-822): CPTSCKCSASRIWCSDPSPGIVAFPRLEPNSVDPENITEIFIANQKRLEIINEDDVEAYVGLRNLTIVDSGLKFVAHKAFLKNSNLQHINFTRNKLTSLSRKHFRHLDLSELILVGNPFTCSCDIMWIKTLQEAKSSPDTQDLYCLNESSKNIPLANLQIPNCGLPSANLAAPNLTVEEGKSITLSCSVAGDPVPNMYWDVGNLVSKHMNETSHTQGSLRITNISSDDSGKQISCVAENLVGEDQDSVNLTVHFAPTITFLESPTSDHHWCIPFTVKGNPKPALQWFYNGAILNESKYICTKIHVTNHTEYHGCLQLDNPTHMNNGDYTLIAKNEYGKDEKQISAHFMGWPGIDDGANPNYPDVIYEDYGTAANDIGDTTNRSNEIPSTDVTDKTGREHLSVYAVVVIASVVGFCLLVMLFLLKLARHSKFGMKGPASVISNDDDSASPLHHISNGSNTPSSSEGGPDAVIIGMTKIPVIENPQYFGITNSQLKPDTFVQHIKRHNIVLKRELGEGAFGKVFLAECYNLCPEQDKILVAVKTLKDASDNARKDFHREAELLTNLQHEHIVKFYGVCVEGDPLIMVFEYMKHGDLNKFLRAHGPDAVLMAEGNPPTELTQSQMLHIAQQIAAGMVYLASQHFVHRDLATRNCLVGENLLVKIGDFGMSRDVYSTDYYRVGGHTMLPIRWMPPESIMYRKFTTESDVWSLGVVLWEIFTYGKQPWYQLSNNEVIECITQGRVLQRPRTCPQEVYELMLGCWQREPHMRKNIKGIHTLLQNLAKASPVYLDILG
T21 sequence (P09619 33-1106): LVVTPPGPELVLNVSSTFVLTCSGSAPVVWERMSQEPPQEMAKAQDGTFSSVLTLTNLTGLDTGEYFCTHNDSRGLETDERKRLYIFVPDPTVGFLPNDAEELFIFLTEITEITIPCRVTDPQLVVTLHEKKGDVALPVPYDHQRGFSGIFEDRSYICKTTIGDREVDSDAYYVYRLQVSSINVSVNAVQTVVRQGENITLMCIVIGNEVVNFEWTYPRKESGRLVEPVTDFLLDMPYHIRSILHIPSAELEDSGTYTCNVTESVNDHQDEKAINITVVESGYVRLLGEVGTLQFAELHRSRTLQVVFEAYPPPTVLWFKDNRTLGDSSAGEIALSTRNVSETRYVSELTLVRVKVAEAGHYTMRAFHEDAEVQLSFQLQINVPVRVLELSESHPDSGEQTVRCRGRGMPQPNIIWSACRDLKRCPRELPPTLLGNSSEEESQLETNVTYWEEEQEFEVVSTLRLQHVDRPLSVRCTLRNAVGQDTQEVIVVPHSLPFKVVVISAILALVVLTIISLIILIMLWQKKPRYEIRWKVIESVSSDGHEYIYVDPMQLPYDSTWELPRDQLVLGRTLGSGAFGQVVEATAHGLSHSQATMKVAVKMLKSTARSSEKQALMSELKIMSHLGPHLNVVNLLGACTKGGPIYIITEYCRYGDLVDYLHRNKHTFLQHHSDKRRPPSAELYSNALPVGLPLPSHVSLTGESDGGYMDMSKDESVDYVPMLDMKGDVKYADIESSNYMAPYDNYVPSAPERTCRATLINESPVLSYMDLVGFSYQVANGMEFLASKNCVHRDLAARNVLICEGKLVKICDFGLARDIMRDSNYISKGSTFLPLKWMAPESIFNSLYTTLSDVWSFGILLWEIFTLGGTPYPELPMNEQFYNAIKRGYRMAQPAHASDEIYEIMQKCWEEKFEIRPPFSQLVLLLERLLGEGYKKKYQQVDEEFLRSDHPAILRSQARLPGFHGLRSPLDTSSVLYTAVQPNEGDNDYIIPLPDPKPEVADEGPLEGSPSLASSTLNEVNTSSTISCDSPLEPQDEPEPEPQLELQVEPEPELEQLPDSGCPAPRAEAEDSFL
T4 sequence (Q96GD4 whole entry): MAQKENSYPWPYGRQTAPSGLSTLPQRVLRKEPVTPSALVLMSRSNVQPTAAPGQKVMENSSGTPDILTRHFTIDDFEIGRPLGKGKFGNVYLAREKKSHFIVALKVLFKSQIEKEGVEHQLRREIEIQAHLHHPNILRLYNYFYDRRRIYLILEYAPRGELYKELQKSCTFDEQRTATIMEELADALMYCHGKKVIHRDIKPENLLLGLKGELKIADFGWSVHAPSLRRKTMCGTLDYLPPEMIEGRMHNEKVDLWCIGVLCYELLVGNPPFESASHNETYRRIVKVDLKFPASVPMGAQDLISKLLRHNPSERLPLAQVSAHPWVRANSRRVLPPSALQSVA

## O=c1c2ccccc2[se]n1-c1ccccc1 [Ebselen, reference compound]
ABL1
  inhibition at 1 µM: 0%
AKT-1
  inhibition at 1 µM: 22%
Aurora A
  inhibition at 1 µM: 0%
Aurora B
  inhibition at 1 µM: 0%
CDK1/Cyclin B
  inhibition at 1 µM: 0%
DDR1
  inhibition at 1 µM: 0%
EGFR
  inhibition at 1 µM: 0%
EPHA1
  inhibition at 1 µM: 0%
FAK; 1 μM, Table 2, read-out: % Inhibition FAK
  inhibition at 1 µM: 1%
FGFR1
  inhibition at 1 µM: 0%
FLT3
  inhibition at 1 µM: 0%
FYN
  inhibition at 1 µM: 0%
HER2
  inhibition at 1 µM: 0%
IGF1R
  inhibition at 1 µM: 0%
IKK-ε
  inhibition at 1 µM: 0%
INSR
  inhibition at 1 µM: 0%
LYN
  inhibition at 1 µM: 0%
MET
  inhibition at 1 µM: 0%
P38-γ
  inhibition at 1 µM: 0%
PAK1
  inhibition at 1 µM: 0%
PDGFR-β
  inhibition at 1 µM: 0%
PIM1
  inhibition at 1 µM: 0%
PKC-α
  inhibition at 1 µM: 25%
PLK4
  inhibition at 1 µM: 0%
RPS6KA4
  inhibition at 1 µM: 0%
SGK3
  inhibition at 1 µM: 0%
SRC
  inhibition at 1 µM: 0%
SYK
  inhibition at 1 µM: 0%
TIE1
  inhibition at 1 µM: 0%
TRKB
  inhibition at 1 µM: 0%
VEGFR2
  inhibition at 1 µM: 0%
YES1
  inhibition at 1 µM: 0%

## O=C(CCCn1[se]c2ccccc2c1=O)N[C@@H]1OC(CO)[C@H](O)C(O)C1O (stereo partly shown) [Compound 14]
MDA-231 cells; [1]
  IC50: 54 µM
DU145 cells; [2]
  IC50: 66.4 µM
FAK; [3]
  inhibition at 1 µM: 13%

## O=C(Cn1[se]c2ccccc2c1=O)N[C@@H]1OC(CO)[C@@H](O)C(O)C1O (stereo partly shown) [Compound 20]
MDA-231 cells; [1]
  IC50: 550 µM
DU145 cells; [2]
  IC50: 395 µM
FAK; [3]
  inhibition at 1 µM: 15%

## 2-(4-(β-D-glucopyranosyl)phenzyl)-1,2-benzisoselenazol-3(2H)-one [Compound 9]
MDA-231 cells; MDA-231 cell proliferation
  IC50: 380 µM
DU145 cells; 96 hours continuous treatment
  IC50: 277 µM
FAK; 1 μM
  FAK inhibition (% at 1 μM): 4%

## O=C(Cn1[se]c2ccccc2c1=O)N[C@@H]1O[C@H](CO)[C@@H](O)[C@H](O)[C@H]1O [Compound 7, 2-(3-oxo-1,2-benzisoselenazol-2(3H)-yl)-N-(1-deoxy-β-D-glucopyranosyl)-acetamide]
MDA-231 cells; MDA-231 cell proliferation
  IC50: 52 µM
DU145 cells; 96 hours continuous treatment
  IC50: 40.3 µM
FAK; 1 μM
  FAK inhibition (% at 1 μM): 8%

## CC(=O)OC[C@H]1O[C@@H](n2[se]c3ccccc3c2=O)[C@H](OC(C)=O)[C@@H](OC(C)=O)[C@H]1OC(C)=O [Compound 2, 2-(1-deoxy-2,3,4,6-tetra-O-acetyl-β-D-galactopyranosyl)-1,2-benzisoselenazol-3(2H)-one]
MDA-231 cells; MDA-231 cell proliferation
  IC50: > 100 µM
DU145 cells; 96 hours continuous treatment
  IC50: 224 µM

## 2-(4-(2,3,4,6-tetra-O-acetyl-β-D-glucopyranosyl)phenzyl)-1,2-benzisoselenazol-3(2H)-one [Compound 8]
MDA-231 cells; MDA-231 cell proliferation
  IC50: 24.6 µM
DU145 cells; 96 hours continuous treatment
  IC50: 33.7 µM
FAK; 1 μM
  FAK inhibition (% at 1 μM): 12%

## CC(=O)OCC1O[C@@H](OC(=O)Cn2[se]c3ccccc3c2=O)C(OC(C)=O)C(OC(C)=O)[C@@H]1OC(C)=O (stereo partly shown) [Compound 17]
MDA-231 cells; [1]
  IC50: 35 µM
DU145 cells; [2]
  IC50: 30.4 µM
FAK; [3]
  inhibition at 1 µM: 51.9%

## O=c1c2ccccc2[se]n1CCO[C@@H]1OC(CO)[C@@H](O)C(O)C1O (stereo partly shown) [Compound 18]
MDA-231 cells; [1]
  IC50: > 100 µM
DU145 cells; [2]
  IC50: 125 µM

## (2,3,4,6-tetra-O-acetyl-β-D-glucopyranosyl)-4-(3-oxo-1,2-benzisoselenazol-2(3H)-yl)benzoate [Compound 10]
MDA-231 cells; MDA-231 cell proliferation
  IC50: 57.5 µM
DU145 cells; 96 hours continuous treatment
  IC50: 30.6 µM

## O=c1c2ccccc2[se]n1[C@@H]1O[C@H](CO)[C@H](O)[C@H](O)[C@H]1O [Compound 3, 2-(1-deoxy-β-D-galactopyranosyl)-1,2-benzisoselenazol-3(2H)-one]
MDA-231 cells; MDA-231 cell proliferation
  IC50: 21 µM
DU145 cells; 96 hours continuous treatment
  IC50: 24.3 µM
